Test results published in US20260158009A1 (GENZYME CORPORATION, priority 2023, published 2026).

Experiments:
U937 cells = assay: Cellular assay in U937 cells: activity of RIPK1 inhibitors on TNFα/zVAD.fmk-induced cell death (necroptosis), CellTiter 96 AQueous (MTS) readout; assay type: cell-based; conditions: Homo sapiens, U-937
Method in brief: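 Necroptosis was measured by viable-cell MTS reduction (4 h, absorbance 490 nm) after overnight (18–24 h) 37° C culture. Cell suspensions of U937 cells carried TNFα (100 ng/ml) plus zVAD.fmk (50 μM) before compound was added. A 10-point curve (10 μM–0.26 nM or 1 μM–0.07 nM) was run in duplicate, normalised to the control lacking TNFα/zVAD.fmk.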

[1] = molecular target: T1, hRIPK1 (aa 1-375) fusion protein (Homo sapiens, UniProt Q13546); assay: ADP-Glo kinase assay: catalytic activity of RIPK1 (autophosphorylation, conversion of ATP to ADP); assay type: biochemical
T1 construct: hRIPK1 (aa 1-375) fusion protein
T1 sequence (Q13546 1-375): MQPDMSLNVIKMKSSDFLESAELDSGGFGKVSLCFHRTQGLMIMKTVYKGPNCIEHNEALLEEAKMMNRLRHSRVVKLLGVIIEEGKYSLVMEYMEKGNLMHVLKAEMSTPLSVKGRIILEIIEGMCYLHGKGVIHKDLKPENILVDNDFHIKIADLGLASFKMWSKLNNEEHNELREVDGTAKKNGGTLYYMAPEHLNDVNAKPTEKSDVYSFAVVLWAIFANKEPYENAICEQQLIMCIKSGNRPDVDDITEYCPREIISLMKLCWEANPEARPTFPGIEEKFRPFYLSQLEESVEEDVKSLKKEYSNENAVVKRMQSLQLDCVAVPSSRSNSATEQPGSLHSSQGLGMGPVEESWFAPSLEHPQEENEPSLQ
Method in brief: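 hRIPK1 (aa 1-375) fusion protein (3.6 μg/ml final) was preincubated 30 min at rt with compound (33300-1.69 nM, 1% DMSO), then 50 μM ATP was added for 240 min at rt. ADP from autophosphorylation was measured by ADP-Glo luminescence and curves fitted by nonlinear regression.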

Structure (SMILES)	IC50 [1] [nM]	IC50 (U937 cells) [nM]
N#Cc1cc(F)cc([C@@H]2CCON2C(=O)[C@H]2CC[C@H](Cn3ccc4nc(C#N)ccc43)CC2)c1 [compound 99, trans-1-[[4-[(3S)-3-(3-cyano-5-fluoro-phenyl)isoxazolidine-2-carbonyl]cyclohexyl]methyl]pyrrolo[3,2-b]pyridine-5-carbonitrile]	37	33
COc1cncc([C@@H]2CCON2C(=O)[C@H]2CC[C@H](Cn3ccc4ncc(C#N)cc43)CC2)n1 [compound 185, trans-1-[[4-[(3S)-3-(6-methoxypyrazin-2-yl)isoxazolidine-2-carbonyl]cyclohexyl]methyl]pyrrolo[3,2-b]pyridine-6-carbonitrile]	32	34
Cc1cc([C@@H]2CCON2C(=O)[C@H]2CC[C@H](Cn3cc4ccc(C#N)cc4n3)CC2)co1 [compound 41, trans-2-((4-((S)-3-(5-methylfuran-3-yl)isoxazolidine-2-carbonyl)cyclohexyl)methyl)-2H-indazole-6-carbonitrile]	30	91
Cc1c(C#N)cncc1C[C@H]1CC[C@H](C(=O)N2OCC[C@H]2c2cc(F)cc(F)c2)CC1 [compound 275, trans-5-[[4-[(3S)-3-(3,5-difluorophenyl)isoxazolidine-2-carbonyl]cyclohexyl]methyl]-4-methyl-pyridine-3-carbonitrile]	8	9
Cc1cc([C@@H]2CCON2C(=O)[C@H]2CC[C@H](Cn3ncc4c(F)cc(C#N)cc43)CC2)co1 [compound 44, trans-4-fluoro-1-((4-((S)-3-(5-methylfuran-3-yl)isoxazolidine-2-carbonyl)cyclohexyl)methyl)-1H-indazole-6-carbonitrile]	17	2
Cc1ncc(C[C@H]2CC[C@H](C(=O)N3OCC[C@H]3c3cc(F)c(C)c(C#N)c3)CC2)cc1C#N [compound 286, trans-5-[[4-[(3S)-3-(3-cyano-5-fluoro-4-methyl-phenyl)isoxazolidine-2-carbonyl]cyclohexyl]methyl]-2-methyl-pyridine-3-carbonitrile]	1	1
N#Cc1cc(F)cc([C@@H]2CCON2C(=O)[C@H]2CC[C@H](Cn3ncc4cc(F)c(C#N)cc43)CC2)c1 [compound 87, trans-1-((4-((S)-3-(3-cyano-5-fluorophenyl)isoxazolidine-2-carbonyl)cyclohexyl)methyl)-5-fluoro-1H-indazole-6-carbonitrile]	18	3
Cc1c2ccccc2nn1C[C@H]1CC[C@H](C(=O)N2OCC[C@H]2c2cc(F)cc(C#N)c2)CC1 [compound 63, trans-3-fluoro-5-((S)-2-(4-((3-methyl-2H-indazol-2-yl)methyl)cyclohexane-1-carbonyl)isoxazolidin-3-yl)benzonitrile]	27	55
N#Cc1cnc2cnn(C[C@H]3CC[C@H](C(=O)N4OCC[C@H]4c4cnccn4)CC3)c2c1 [compound 137, trans-1-[[4-[(3S)-3-pyrazin-2-ylisoxazolidine-2-carbonyl]cyclohexyl]methyl]pyrazolo[4,3-b]pyridine-6-carbonitrile]	30	46
O=C([C@H]1CC[C@H](Cn2cnc3ccccc32)CC1)N1OCC[C@H]1c1cncc(F)c1 [compound 9, trans-(4-((1H-benzo[d]imidazol-1-yl)methyl)cyclohexyl)((S)-3-(5-fluoropyridin-3-yl)isoxazolidin-2-yl)methanone]	113	174
Cc1cc(C)n(-c2cc(C[C@H]3CC[C@H](C(=O)N4OCC[C@H]4c4cc(F)cc(F)c4)CC3)ncn2)n1 [compound 125, trans-[(3S)-3-(3,5-difluorophenyl)isoxazolidin-2-yl]-[4-[[6-(3,5-dimethylpyrazol-1-yl)pyrimidin-4-yl]methyl]cyclohexyl]methanone]	9	16
Cc1ccc([C@@H]2CCON2C(=O)C23CCC(Cc4ccc(C)c(C(N)=O)c4)(CC2)CC3)cn1 [compound 272, 2-methyl-5-[[4-[(3S)-3-(6-methyl-3-pyridyl)isoxazolidine-2-carbonyl]-1-bicyclo[2.2.2]octanyl]methyl]benzamide]	29	206
N#Cc1ccc2cn(C[C@H]3CC[C@H](C(=O)N4OCC[C@H]4c4cc(F)cc(F)c4)CC3)nc2c1 [compound 31, trans-2-((4-((S)-3-(3,5-difluorophenyl)isoxazolidine-2-carbonyl)cyclohexyl)methyl)-2H-indazole-6-carbonitrile]	24	19
NC(=O)c1ccc2cn(C[C@H]3CC[C@H](C(=O)N4OCC[C@H]4c4cnccn4)CC3)nc2c1 [Compound 228, trans-2-[[4-[(3S)-3-pyrazin-2-ylisoxazolidine-2-carbonyl]cyclohexyl]methyl]indazole-6-carboxamide]	65	191

More lines, main results first:

IC50 [1] [nM]	Structure (SMILES)	IC50 (U937 cells) [nM]
25	Cc1ccc([C@@H]2CCON2C(=O)[C@H]2CC[C@H](Cc3cc(C)ncc3F)CC2)cn1 [compound 386, trans-[4-[(5-fluoro-2-methylpyridin-4-yl)methyl]cyclohexyl]-[(3S)-3-(6-methylpyridin-3-yl)-1,2-oxazolidin-2-yl]methanone]	13
25	Cc1nc2c(F)cc(C[C@H]3CC[C@H](C(=O)N4OCC[C@H]4c4cnccn4)CC3)cn2n1 [compound 340, trans-[4-[(8-fluoro-2-methyl-[1,2,4]triazolo[1,5-a]pyridin-6-yl)methyl]cyclohexyl]-[(3S)-3-pyrazin-2-yl-1,2-oxazolidin-2-yl]methanone]	77
2000	Cc1nc2c(C)cc(C[C@H]3CC[C@@](C)(C(=O)N4OCC[C@H]4c4cnc(C)c(F)c4)CC3)cn2n1 [compound 402]	1130
65	Cc1cn2ncc(C[C@H]3CC[C@H](C(=O)N4OCC[C@H]4c4csc(C)n4)CC3)cc2n1 [compound 371, trans-[4-(2-Methyl-imidazo[1,2-b]pyridazin-7-ylmethyl)-cyclohexyl]-[(S)-3-(2-methyl-thiazol-4-yl)-isoxazolidin-2-yl]-methanone]	147
20	Cc1ccc([C@@H]2CCON2C(=O)[C@H]2CC[C@H](Cc3cc(C)ncc3Cl)CC2)cn1 [compound 389, trans-[4-[(5-chloro-2-methylpyridin-4-yl)methyl]cyclohexyl]-[(3S)-3-(6-methylpyridin-3-yl)-1,2-oxazolidin-2-yl]methanone]	13
15	Cc1ncc([C@@H]2CCON2C(=O)[C@H]2CC[C@H](Cc3ccnn3C)CC2)cc1F [compound 404, trans-[(3S)-3-(5-fluoro-6-methylpyridin-3-yl)-1,2-oxazolidin-2-yl]-[4-[(2-methylpyrazol-3-yl)methyl]cyclohexyl]methanone]	22
46	Cc1cnc([C@@H]2CCON2C(=O)[C@H]2CC[C@H](Cc3cc(C)c4ncnn4c3)CC2)cn1 [compound 409, trans-[(3S)-3-(5-methylpyrazin-2-yl)-1,2-oxazolidin-2-yl]-[4-[(8-methyl-[1,2,4]triazolo[1,5-a]pyridin-6-yl)methyl]cyclohexyl]methanone]	66
